Tested on: Rat Calvarial Osteoblasts (RCOs)
Assay: ALP assay (osteoblast differentiation) in rat calvarial osteoblasts
Assay type: cell-based
Details: for Activity in ALP Assay (Positive/Negative) / Effect on ALP activity compared to the control (vehicle): 48 h; for EC50: Rattus norvegicus, Calvarial osteoblast, 48 h in osteoblast differentiation media
Procedure: Sequential digestion was performed to isolate calvarial osteoblast cells from neonatal rat pups. Briefly, calvariae were harvested from ten to twelve 1–2-day old rat pups, cleaned, and subjected to five sequential enzymatic digestions (0.1% dispase and 0.1% collagenase I) of 10–15 min each, followed by culturing of the harvested cells in α-MEM supplemented with 10% FBS [22].
RCOs were seeded in 24-well plates (1 × 10^4 cells/well), and the cells were treated for 48 h in osteoblast differentiation media (α-MEM supplemented with 10 mM β-glycerophosphate and 50 μg/mL ascorbic acid) with the imidazole group of chemicals (10^−11 M–10^−6 M).
A total of 2 mg/mL of para-Nitrophenyl phosphate in diethanolamine buffer was used to measure the ALP activity at a 405 nm wavelength.

SMILES | EC50 | Activity in ALP Assay (Positive/Negative) | Effect on ALP activity compared to the control (vehicle)
O=C(Cn1ccnc1[N+](=O)[O-])NCCO [Etanidazole] | 0.4 µM | Positive | significantly increased
Cc1ncc([N+](=O)[O-])n1CC(O)CCl (stereo not drawn) [Ornidazole] | > 10 µM | Negative | no effect
Cn1c([N+](=O)[O-])cnc1COC(N)=O [Ronidazole] | > 10 µM | Negative | no effect

Now from value to compound, other results behind:

EC50 | SMILES | Activity in ALP Assay (Positive/Negative) | Effect on ALP activity compared to the control (vehicle)
> 10 µM | Cc1ncc([N+](=O)[O-])n1CC(C)O (stereo not drawn) [Secnidazole] | Negative | no effect
> 10 µM | CCS(=O)(=O)CCn1c([N+](=O)[O-])cnc1C [Tinidazole] | Negative | no effect

Source: paper PMC11274654 (Biomedicines, 2024)
